Measured values from publication PMC3432483 (Blood Cancer Journal, 2012).

Tests used:
CDC-like kinase 1 (CLK1) = CDC-like kinase 1 (CLK1) (Homo sapiens, UniProt P49759); experiment: Full dose-response kinase assay; format: biochemical
RPS6KA = experiment: Full dose-response kinase assay; format: biochemical
VEGFR2 = VEGFR2 (Homo sapiens, UniProt P35968); experiment: Full dose-response kinase assay; format: biochemical
CLK kinases = experiment: 320-kinase panel screen, radiometric protein kinase assay, CLK kinases; format: biochemical; conditions: 1 μM, 60 min incubation
RPS6K = experiment: 320-kinase panel screen, radiometric protein kinase assay, RPS6K; format: biochemical; conditions: 1 μM
AKT 1, 2, 3 = experiment: AKT radiometric protein kinase assay; format: biochemical; conditions: 1 μM, 60 min
ERK 1, 2 = experiment: ERK radiometric protein kinase assay; format: biochemical; conditions: 1 μM, 60 min
MV4-11 cells [1] = experiment: FMCA cytotoxicity, MV4-11 cell line; format: cell-based, human
MOLM-13 cells = experiment: Alamar Blue cytotoxicity, MOLM-13 cells; format: cell-based; conditions: Homo sapiens, MOLM-13, read-out: cytotoxic activity IC50, MOLM-13
[2] = test system: HeLa, ACHN and NCI-H69 cell lines; experiment: FMCA cytotoxicity, solid tumor cell lines; format: cell-based, human; conditions: 72 h
primary AML cells [3] = experiment: FMCA cytotoxicity, primary AML patient cells; format: cell-based, human
MV4-11 cells [4] = experiment: Apoptosis assay; format: cell-based, human; conditions: 10 μM, up to 48 h
MV4-11 cells [5] = experiment: Mouse hollow-fiber model, MV4-11; format: in vivo; conditions: NMRI male mice, 15 mg/kg s.c. twice daily, 6 days
primary AML cells [6] = experiment: Mouse hollow-fiber model, primary AML cells; format: in vivo; conditions: NMRI male mice, 15 mg/kg s.c. twice daily, 6 days
[7] = Pharmacokinetic studies in C57 black mice; format: in vivo, mouse
Plasma protein binding = format: in vitro ADME
FGFR2 = FGFR2 (Homo sapiens, UniProt P21802); experiment: biochemical
FGFR2, sequence (P21802 22-821): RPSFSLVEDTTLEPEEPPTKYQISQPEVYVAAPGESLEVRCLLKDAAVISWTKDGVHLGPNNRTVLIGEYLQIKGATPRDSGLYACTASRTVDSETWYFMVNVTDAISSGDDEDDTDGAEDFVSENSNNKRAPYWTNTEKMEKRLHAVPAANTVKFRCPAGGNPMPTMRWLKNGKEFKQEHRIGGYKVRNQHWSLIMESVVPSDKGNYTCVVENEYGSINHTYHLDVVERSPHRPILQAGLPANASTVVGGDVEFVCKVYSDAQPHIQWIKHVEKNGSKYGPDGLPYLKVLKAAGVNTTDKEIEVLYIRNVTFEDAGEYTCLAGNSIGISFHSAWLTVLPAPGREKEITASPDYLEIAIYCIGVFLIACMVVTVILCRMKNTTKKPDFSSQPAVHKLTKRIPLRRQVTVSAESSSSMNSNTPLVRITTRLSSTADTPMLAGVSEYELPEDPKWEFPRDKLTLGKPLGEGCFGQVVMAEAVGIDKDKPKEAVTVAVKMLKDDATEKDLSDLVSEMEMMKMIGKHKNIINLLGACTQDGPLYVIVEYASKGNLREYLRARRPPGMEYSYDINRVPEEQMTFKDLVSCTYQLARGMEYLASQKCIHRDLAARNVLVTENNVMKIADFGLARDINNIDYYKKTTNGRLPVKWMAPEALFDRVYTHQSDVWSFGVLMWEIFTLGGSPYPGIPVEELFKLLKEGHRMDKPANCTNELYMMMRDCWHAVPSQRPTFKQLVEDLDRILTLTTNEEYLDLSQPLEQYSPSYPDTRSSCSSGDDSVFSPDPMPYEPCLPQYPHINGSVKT

MV4-11 cells [8] = experiment: Combination studies with cytarabine or daunorubicin

CDC-like kinase 1 (CLK1), sequence (P49759 whole entry): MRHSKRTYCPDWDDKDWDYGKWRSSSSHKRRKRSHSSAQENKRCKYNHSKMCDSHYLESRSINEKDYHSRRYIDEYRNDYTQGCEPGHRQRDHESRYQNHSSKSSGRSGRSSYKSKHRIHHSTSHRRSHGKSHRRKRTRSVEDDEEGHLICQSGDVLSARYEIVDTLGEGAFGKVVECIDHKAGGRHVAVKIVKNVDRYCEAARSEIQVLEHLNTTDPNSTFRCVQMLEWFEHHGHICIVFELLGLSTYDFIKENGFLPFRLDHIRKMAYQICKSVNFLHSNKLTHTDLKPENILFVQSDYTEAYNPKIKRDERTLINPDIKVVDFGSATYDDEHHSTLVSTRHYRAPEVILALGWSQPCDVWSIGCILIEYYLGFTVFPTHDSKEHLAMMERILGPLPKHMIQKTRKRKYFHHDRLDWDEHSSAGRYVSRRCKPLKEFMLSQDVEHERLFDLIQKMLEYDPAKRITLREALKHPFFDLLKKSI
VEGFR2, sequence (P35968 20-1356): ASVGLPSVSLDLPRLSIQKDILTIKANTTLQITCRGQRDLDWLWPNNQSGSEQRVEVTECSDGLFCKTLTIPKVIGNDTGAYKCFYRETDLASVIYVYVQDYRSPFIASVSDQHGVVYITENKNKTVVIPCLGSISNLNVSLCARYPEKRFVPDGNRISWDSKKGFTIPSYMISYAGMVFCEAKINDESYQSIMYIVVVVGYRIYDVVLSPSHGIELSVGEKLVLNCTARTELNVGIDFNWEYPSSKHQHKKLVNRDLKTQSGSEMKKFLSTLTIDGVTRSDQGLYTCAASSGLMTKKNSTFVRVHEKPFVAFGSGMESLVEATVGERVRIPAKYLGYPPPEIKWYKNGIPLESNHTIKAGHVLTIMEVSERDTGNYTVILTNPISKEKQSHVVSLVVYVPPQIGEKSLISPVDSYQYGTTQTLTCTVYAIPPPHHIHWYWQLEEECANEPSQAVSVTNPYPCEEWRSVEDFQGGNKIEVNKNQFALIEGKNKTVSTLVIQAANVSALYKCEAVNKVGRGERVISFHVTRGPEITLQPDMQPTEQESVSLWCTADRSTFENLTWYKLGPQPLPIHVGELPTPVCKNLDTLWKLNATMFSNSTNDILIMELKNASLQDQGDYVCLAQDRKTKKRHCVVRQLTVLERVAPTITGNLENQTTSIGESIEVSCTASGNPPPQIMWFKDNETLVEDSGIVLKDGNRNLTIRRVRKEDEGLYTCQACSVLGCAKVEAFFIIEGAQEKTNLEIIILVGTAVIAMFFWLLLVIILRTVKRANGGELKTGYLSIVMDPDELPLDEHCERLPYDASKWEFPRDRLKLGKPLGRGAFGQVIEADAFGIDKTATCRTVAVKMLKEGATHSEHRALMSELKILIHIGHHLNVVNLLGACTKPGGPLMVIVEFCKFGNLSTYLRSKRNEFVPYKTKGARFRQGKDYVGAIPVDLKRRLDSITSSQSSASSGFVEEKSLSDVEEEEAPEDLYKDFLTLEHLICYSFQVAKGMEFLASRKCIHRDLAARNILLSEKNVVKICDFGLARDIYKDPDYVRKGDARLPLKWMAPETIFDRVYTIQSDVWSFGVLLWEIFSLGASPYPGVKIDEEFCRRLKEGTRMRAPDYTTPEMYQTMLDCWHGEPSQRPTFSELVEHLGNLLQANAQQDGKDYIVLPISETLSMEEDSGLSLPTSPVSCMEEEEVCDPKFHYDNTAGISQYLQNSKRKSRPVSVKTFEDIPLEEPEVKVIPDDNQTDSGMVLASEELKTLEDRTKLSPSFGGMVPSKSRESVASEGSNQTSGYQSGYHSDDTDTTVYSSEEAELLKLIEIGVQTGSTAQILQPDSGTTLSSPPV

Nc1ncc(-c2ccncc2)nc1Nc1ccc2[nH]ccc2c1 [AKN-028, N-3-(1H-indol-5-yl)-5-pyridin-4-yl-pyrazine-2,3-diamine]
IC50 (CDC-like kinase 1 (CLK1)): 140 nM | IC50 RPS6KA (RPS6KA): 220 nℳ nM | IC50 (VEGFR2): 520 nM | remaining enzyme activity, CLK kinases (CLK kinases): Less than 20% | remaining enzyme activity, RPS6K (RPS6K; 60 min incubation): Less than 20% | inhibition of AKT 1, 2, 3 (AKT 1, 2, 3): No direct inhibition | inhibition of ERK 1, 2 (ERK 1, 2): No direct inhibition | IC50 (MV4-11 cells [1]; Homo sapiens, MV4-11, 72 h, read-out: cytotoxic activity IC50, MV4-11): < 50 nM | IC50 (MOLM-13 cells): < 50 nM | cytotoxic effect in solid tumor cell lines HeLa, ACHN and NCI-H69 [2]: Almost no effect | IC50 (primary AML cells [3]; Homo sapiens, read-out: mean IC50, primary AML samples, n=15 samples): 1000 nM | apoptosis / caspase 3 activation in MV4-11 (MV4-11 cells [4]): induced apoptosis by activation of caspase 3 | net growth in hollow fibers, MV4-11 (MV4-11 cells [5]): reduced the tumor mass | net growth in hollow fibers, primary AML sample UPN25 (primary AML cells [6]): no significant inhibition | net growth in hollow fibers, primary AML sample UPN26 (primary AML cells [6]): inhibited net growth | plasma target concentration ([7]; IC90 divided by fraction unbound): 1 to 3 µM | predicted exposure time above plasma target concentration ([7]; hollow-fiber experiment, twice daily, target 1–3 μM): 1 h | fraction unbound (Plasma protein binding): 0.035 | IC50 (FGFR2): 1200 nM | drug interaction (mean combination index) with cytarabine (MV4-11 cells [8]; cytarabine simultaneously or 24 h before AKN-028, cytarabine:AKN-028 2.5:1): synergy | drug interaction (mean combination index) with daunorubicin (MV4-11 cells [8]; daunorubicin simultaneously or 24 h before AKN-028, daunorubicin:AKN-028 1:20): synergy | drug interaction (mean combination index) with cytarabine (MV4-11 cells [8]; pre-treated with AKN-028 24 h, followed by cytarabine): antagonism | drug interaction (mean combination index) with daunorubicin (MV4-11 cells [8]; pre-treated with AKN-028 24 h, followed by daunorubicin): antagonism

CC(C)(C)c1cc(NC(=O)Nc2ccc(-c3cn4c(n3)sc3cc(OCCN5CCOCC5)ccc34)cc2)no1 [AC220, reference compound]
inhibition of RPS6K in kinase-panel screen (RPS6K): did not inhibit | cytotoxic efficacy in MV4-11 (MV4-11 cells [1]; FMCA dose-response): full efficacy | cytotoxic response in primary AML samples (primary AML cells [3]; FMCA, 11 additional AML patient samples (UPN 14-24)): varied considerably
